Experimental data published in ChEMBL document CHEMBL4229418, “Design, synthesis and pharmacology of aortic-selective acyl-CoA: Cholesterol O-acyltransferase (ACAT/SOAT) inhibitors” (Bioorg Med Chem, 2018).

What was measured:
Hamster [1] = assay: Antiatherosclerotic activity in Bio F1B hamster model of diet-induced atherosclerosis assessed as reduction in lipid accumulation areas in aortic arch at 30 mg/kg/day added to chow pellets by oil red O staining based assay relative to control; type: functional; conditions: Cricetinae
Hamster [2] = assay: Effect on lipid composition in Bio F1B hamster model of diet-induced atherosclerosis assessed as intestine total cholesterol level at 3 mg/kg/day added to chow pellets (reference value: 4.51 mg/dl); type: functional, Cricetinae
Hamster [3] = assay: Antiatherosclerotic activity in Bio F1B hamster model of diet-induced atherosclerosis assessed as intestinal cholesterol ester level at 30 mg/kg/day added to chow pellets (reference value: 1.09 mg/dl); type: functional, Cricetinae
Hamster [4] = assay: Antiatherosclerotic activity in Bio F1B hamster model of diet-induced atherosclerosis assessed as plasma cholesterol ester level at 30 mg/kg/day added to chow pellets (reference value: 1379.3 mg/dl); type: functional, Cricetinae
Hamster [5] = assay: Antiatherosclerotic activity in Bio F1B hamster model of diet-induced atherosclerosis assessed as reduction in lipid accumulation areas in aortic arch at 10 mg/kg/day added to chow pellets by oil red O staining based assay relative to control; type: functional; conditions: Cricetinae
Hamster [6] = assay: Antiatherosclerotic activity in Bio F1B hamster model of diet-induced atherosclerosis assessed as intestinal free cholesterol level at 3 mg/kg/day added to chow pellets (reference value: 3.41 mg/dl); type: functional, Cricetinae
Hamster [7] = assay: Antiatherosclerotic activity in Bio F1B hamster model of diet-induced atherosclerosis assessed as adrenal cholesterol ester level at 10 mg/kg/day added to chow pellets (reference value: 5.88 mg/dl); type: functional, Cricetinae
Hamster [8] = assay: Effect on lipid composition in Bio F1B hamster model of diet-induced atherosclerosis assessed as liver total cholesterol level at 10 mg/kg/day added to chow pellets (reference value: 31.99 mg/dl); type: functional, Cricetinae
Hamster [9] = assay: Toxicity in Bio F1B hamster model of diet-induced atherosclerosis assessed as plasma total cholesterol level at 3 mg/kg/day added to chow pellets (reference value: 2160.1 mg/dl); type: organism-based; conditions: cricetinae, in vivo
Hamster [10] = assay: Antiatherosclerotic activity in Bio F1B hamster model of diet-induced atherosclerosis assessed as plasma cholesterol ester level at 3 mg/kg/day added to chow pellets (reference value: 1379.3 mg/dl); type: functional, Cricetinae
Hamster [11] = assay: Effect on lipid composition in Bio F1B hamster model of diet-induced atherosclerosis assessed as liver total cholesterol level at 30 mg/kg/day added to chow pellets (reference value: 31.99 mg/dl); type: functional, Cricetinae
Hamster [12] = assay: Antiatherosclerotic activity in Bio F1B hamster model of diet-induced atherosclerosis assessed as intestinal cholesterol ester level at 3 mg/kg/day added to chow pellets (reference value: 1.09 mg/dl); type: functional, Cricetinae
Hamster [13] = assay: Toxicity in Bio F1B hamster model of diet-induced atherosclerosis assessed as adrenal free cholesterol level at 3 mg/kg/day added to chow pellets (reference value: 4.65 mg/dl); type: organism-based; conditions: cricetinae, in vivo
Hamster [14] = assay: Antiatherosclerotic activity in Bio F1B hamster model of diet-induced atherosclerosis assessed as reduction in lipid accumulation areas in aortic arch at 3 mg/kg/day added to chow pellets by oil red O staining based assay relative to control; type: functional; conditions: Cricetinae
Hamster [15] = assay: Antiatherosclerotic activity in Bio F1B hamster model of diet-induced atherosclerosis assessed as intestinal cholesterol ester level at 1 mg/kg/day added to chow pellets (reference value: 1.09 mg/dl); type: functional, Cricetinae
Hamster [16] = assay: Antiatherosclerotic activity in Bio F1B hamster model of diet-induced atherosclerosis assessed as adrenal cholesterol ester level at 30 mg/kg/day added to chow pellets (reference value: 5.88 mg/dl); type: functional, Cricetinae
Hamster [17] = assay: Antiatherosclerotic activity in Bio F1B hamster model of diet-induced atherosclerosis assessed as plasma free cholesterol level at 30 mg/kg/day added to chow pellets (reference value: 780.8 mg/dl); type: functional, Cricetinae
Hamster [18] = assay: Effect on lipid composition in Bio F1B hamster model of diet-induced atherosclerosis assessed as liver total cholesterol level at 3 mg/kg/day added to chow pellets (reference value: 31.99 mg/dl); type: functional, Cricetinae
Hamster [19] = assay: Antiatherosclerotic activity in Bio F1B hamster model of diet-induced atherosclerosis assessed as liver free cholesterol level at 3 mg/kg/day added to chow pellets (reference value: 7.94 mg/dl); type: functional, Cricetinae
[20] = Toxicity in rat measured over 2 weeks; type: organism-based; conditions: in vivo
Hamster [21] = assay: Antiatherosclerotic activity in Bio F1B hamster model of diet-induced atherosclerosis assessed as liver free cholesterol level at 10 mg/kg/day added to chow pellets (reference value: 7.94 mg/dl); type: functional, Cricetinae
Hamster [22] = assay: Antiatherosclerotic activity in Bio F1B hamster model of diet-induced atherosclerosis assessed as adrenal cholesterol ester level at 1 mg/kg/day added to chow pellets (reference value: 5.88 mg/dl); type: functional, Cricetinae
Hamster [23] = assay: Antiatherosclerotic activity in Bio F1B hamster model of diet-induced atherosclerosis assessed as liver cholesterol ester level at 3 mg/kg/day added to chow pellets (reference value: 24.04 mg/dl); type: functional, Cricetinae
Hamster [24] = assay: Antiatherosclerotic activity in Bio F1B hamster model of diet-induced atherosclerosis assessed as liver cholesterol ester level at 10 mg/kg/day added to chow pellets (reference value: 24.04 mg/dl); type: functional, Cricetinae
Hamster [25] = assay: Effect on lipid composition in Bio F1B hamster model of diet-induced atherosclerosis assessed as adrenal total cholesterol level at 1 mg/kg/day added to chow pellets (reference value: 10.54 mg/dl); type: functional, Cricetinae
Hamster [26] = assay: Effect on lipid composition in Bio F1B hamster model of diet-induced atherosclerosis assessed as liver total cholesterol level at 1 mg/kg/day added to chow pellets (reference value: 31.99 mg/dl); type: functional, Cricetinae
Hamster [27] = assay: Toxicity in Bio F1B hamster model of diet-induced atherosclerosis assessed as adrenal free cholesterol level at 10 mg/kg/day added to chow pellets (reference value: 4.65 mg/dl); type: organism-based; conditions: cricetinae, in vivo

## CC(C)c1cccc(C(C)C)c1NC(=O)CCCCCCCCSc1nc2ccccc2o1
Hamster [1]
  inhibition in vivo at 30 mg/kg/day: 7%
Hamster [2]
  Activity: 4.12 mg/dL
Hamster [3]
  Activity: 0.24 mg/dL
Hamster [4]
  Activity: 259 mg/dL
Hamster [5]
  inhibition in vivo at 10 mg/kg/day: 42%
Hamster [6]
  Activity: 3.18 mg/dL
Hamster [7]
  Activity: 3.5 mg/dL
Hamster [8]
  Activity: 11.52 mg/dL
Hamster [9]
  Activity: 2241 mg/dL
Hamster [10]
  Activity: 1439.6 mg/dL
Hamster [11]
  Activity: 3.03 mg/dL
Hamster [12]
  Activity: 0.94 mg/dL
Hamster [13]
  Activity: 4.05 mg/dL
Hamster [14]
  inhibition in vivo at 3 mg/kg/day: 69%
Hamster [15]
  Activity: 0.98 mg/dL
Hamster [16]
  Activity: 1.08 mg/dL
Hamster [17]
  Activity: 217.2 mg/dL
Hamster [18]
  Activity: 23.62 mg/dL
Hamster [19]
  Activity: 5.95 mg/dL
[20]
  NOAEL at 336 h: 30 mg/kg
Hamster [21]
  Activity: 3.87 mg/dL
Hamster [22]
  Activity: 6.72 mg/dL
Hamster [23]
  Activity: 17.67 mg/dL
Hamster [24]
  Activity: 7.65 mg/dL
Hamster [25]
  Activity: 11.13 mg/dL
Hamster [26]
  Activity: 30.75 mg/dL
Hamster [27]
  Activity: 3.5 mg/dL
